US20260138969A1 (Korea Research Institute of Chemical Technology, priority 2023, published 2026)

Assay: Distribution in the mouse brain (plasma and brain AUC)
Type: in vivo
Description: The blood-brain barrier permeability in ICR mice was confirmed by oral administration of 10 mg/kg of test material. Male […] mice were fasted for 15 h prior to administration. The test material was administered at a dose of 10 mg/kg and a volume of 5 mL/kg, and the solvent composition was N-Methyl-2-pyrrolidone (NMP), Polyethylene glycol 400 (PEG 400), and distilled water (D.W) at a volume ratio of 10:40:50(%), respectively. After administration, blood and brain tissue samples were taken by sacrificing mice with carbon dioxide inhalation at each time point corresponding to 1, 4, and 8 hours. Whole blood was collected from the abdominal vena cava, and brain samples were collected after systemic perfusion with saline to remove as much blood as possible.
The distribution ratio in mouse plasma and brain was calculated by calculating the AUC after concentration quantification in each tissue.

[1] = oral 10 mg/kg, samples at 1, 4, 8 hours

## Cc1cc(F)c(C(=O)Nc2cccc(-n3nnc4c3CCCC4)n2)cc1-n1cnc(C2CC2)c1 [Example 3, 5-(4-cyclopropyl-1H-imidazole-1-yl)-2-fluoro-4-methyl-N-(6-(4,5,6,7-tetrahydro-1H-benzo[d][1,2,3]triazole-1-yl)pyridine-2-yl)benzamide]
male, brain/plasma, po, 10 mg/kg
  Kp: 0.021
[1]
  Aukinf brain: 6.61 ± 1.75 ug*h · g.
  Aukinf plasma: 320 ± 74.8 µg·mL·h
